Measurements published in paper PMC5516003, “Betulinic acid is a PPARγ antagonist that improves glucose uptake, promotes osteogenesis and inhibits adipogenesis” (Scientific Reports, 2017).

Assays:
PPARγ [1] = molecular target: T1, PPARγ (Homo sapiens, UniProt P37231); assay: ITC (reverse titration) and X-ray crystal structure; also affinity cartridge and GAL4 antagonist assay (IC50 […]); format: binding
T1 construct: gene PPARG
T1 sequence (P37231 222-505): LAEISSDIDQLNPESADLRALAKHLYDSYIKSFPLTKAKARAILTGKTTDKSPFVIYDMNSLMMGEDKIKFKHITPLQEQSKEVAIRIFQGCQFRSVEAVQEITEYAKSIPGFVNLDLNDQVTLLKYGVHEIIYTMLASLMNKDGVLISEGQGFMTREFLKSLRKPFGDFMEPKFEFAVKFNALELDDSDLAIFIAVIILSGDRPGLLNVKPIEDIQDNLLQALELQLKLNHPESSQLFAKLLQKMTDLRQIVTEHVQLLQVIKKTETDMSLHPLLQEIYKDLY

PPARγ [2] = molecular target: T2, PPARγ (Homo sapiens, UniProt P37231); assay: immobilized-receptor affinity cartridge (breakthrough shift); also GAL4 transactivation partial agonist, Emax […]; format: binding
T2 construct: gene PPARG; His-tagged PPARγ LBD
T2 sequence (P37231 231-505 limits assumed): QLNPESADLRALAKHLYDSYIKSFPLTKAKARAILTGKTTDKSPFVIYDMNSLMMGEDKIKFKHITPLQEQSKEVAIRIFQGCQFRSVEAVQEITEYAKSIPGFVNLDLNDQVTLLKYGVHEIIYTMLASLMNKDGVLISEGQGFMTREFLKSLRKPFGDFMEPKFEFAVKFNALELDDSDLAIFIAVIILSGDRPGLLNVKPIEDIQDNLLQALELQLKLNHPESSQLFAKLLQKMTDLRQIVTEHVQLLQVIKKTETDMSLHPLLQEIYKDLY

Structure (SMILES)	Kd (PPARγ [1]) [µM]	immobilized-receptor affinity cartridge (breakthrough shift); also GAL4 transact (PPARγ [2])
C=C(C)[C@@H]1CC[C@]2(C(=O)O)CC[C@]3(C)[C@H](CC[C@@H]4[C@@]5(C)CC[C@H](O)C(C)(C)[C@@H]5CC[C@]43C)[C@@H]12 [BA, betulinic acid]	4	–
CC1=CC(=O)c2c(O)cccc2C1=O [plumbagin]	–	only three ligands (i.e., plumbagin, BA and coumarin) interact with the receptor
